Experimental data reported in US20210045385A1, “PYRIDAZINONE-SUBSTITUTED KETOXIMES AS HERBICIDES” (FMC Corporation, priority 2018, published 2021).

Columns and labels:
Format in all cases: in vivo
[1] = tested on: Italian ryegrass (Lolium multiflorum); assay: Test A preemergence, visual plant response rating; conditions: for Ryegrass, Italian plant response rating: 125 g ai/ha, preemergence, 0 to 100 scale, 0 no effect, 100 complete control; for Ryegrass, Italian plant response rating (0 to 100 scale): 500 g ai/ha Preemergence, approx. 10 days
Summary of the method: (§1)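 Greenhouse evaluation, approx. 10 days post-spray. Soil: loam + sand. Postemergence stage: 1–2 leaves, height 2–10 cm. Vehicle: non-phytotoxic solvent blend with surfactant. Score: visual injury on a 0 (no effect) to 100 (complete control) scale.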

[2] = tested on: barnyardgrass (Echinochloa crus-galli); assay: Test A preemergence, visual plant response rating; conditions: for Barnyardgrass plant response rating: 125 g ai/ha, preemergence, 0 to 100 scale, 0 no effect, 100 complete control; for Barnyardgrass plant response rating (0 to 100 scale): 500 g ai/ha Preemergence, approx. 10 days
Summary of the method: as §1

[3] = tested on: foxtail, giant (giant foxtail, Setaria faberii); assay: Test A preemergence, visual plant response rating; conditions: for Foxtail, Giant plant response rating: 125 g ai/ha, preemergence, 0 to 100 scale, 0 no effect, 100 complete control; for Foxtail, Giant plant response rating (0 to 100 scale): 500 g ai/ha Preemergence, approx. 10 days
Summary of the method: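 Ratings use a 0–100 visual scale (100 = complete control) against untreated controls, scored about 10 days after greenhouse treatment. Test chemicals were formulated in surfactant-containing non-phytotoxic solvent and applied either as soil spray after planting (preemergence) or onto one- to two-leaf, 2–10 cm plants (postemergence).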

kochia (Kochia scoparia) [4] = assay: Test A preemergence, visual plant response rating; conditions: for Kochia plant response rating: 125 g ai/ha, preemergence, 0 to 100 scale, 0 no effect, 100 complete control; for Kochia plant response rating (0 to 100 scale): 500 g ai/ha Preemergence, approx. 10 days
Summary of the method: as §1

[5] = tested on: pigweed (Amaranthus retroflexus); assay: Test A preemergence, visual plant response rating; conditions: for Pigweed plant response rating: 125 g ai/ha, preemergence, 0 to 100 scale, 0 no effect, 100 complete control; for Pigweed plant response rating (0 to 100 scale): 500 g ai/ha Preemergence, approx. 10 days
Summary of the method: as §1

[6] = tested on: ragweed (common ragweed, Ambrosia elatior); assay: Test A preemergence, visual plant response rating; conditions: for Ragweed plant response rating (0 to 100 scale): 500 g ai/ha Preemergence, approx. 10 days
Summary of the method: as §1

[7] = tested on: Italian ryegrass (Lolium multiflorum); assay: Test A postemergence, visual plant response rating; conditions: for Ryegrass, Italian plant response rating (0 to 100 scale): 500 g ai/ha, postemergence, 0 is no effect, 100 is complete control; for Ryegrass, Italian plant response rating: Postemergence, 125 g ai/ha, 0 to 100 scale (0 no effect, 100 complete control)
Summary of the method: as §1

[8] = tested on: barnyardgrass (Echinochloa crus-galli); assay: Test A postemergence, visual plant response rating; conditions: for Barnyardgrass plant response rating (0 to 100 scale): 500 g ai/ha, postemergence, 0 is no effect, 100 is complete control; for Barnyardgrass plant response rating: Postemergence, 125 g ai/ha, 0 to 100 scale (0 no effect, 100 complete control)
Summary of the method: as §1

[9] = tested on: blackgrass (Alopecurus myosuroides); assay: Test A postemergence, visual plant response rating; conditions: for Blackgrass plant response rating (0 to 100 scale): 500 g ai/ha, postemergence, 0 is no effect, 100 is complete control; for Blackgrass plant response rating: Postemergence, 125 g ai/ha, 0 to 100 scale (0 no effect, 100 complete control)
Summary of the method: as §1

corn (Zea mays) = assay: Test A postemergence, visual plant response rating; conditions: for Corn plant response rating (0 to 100 scale): 500 g ai/ha, postemergence, 0 is no effect, 100 is complete control; for Corn plant response rating: Postemergence, 125 g ai/ha, 0 to 100 scale (0 no effect, 100 complete control)
Summary of the method: as §1

[10] = tested on: foxtail, giant (giant foxtail, Setaria faberii); assay: Test A postemergence, visual plant response rating; conditions: for Foxtail, Giant plant response rating (0 to 100 scale): 500 g ai/ha, postemergence, 0 is no effect, 100 is complete control; for Foxtail, Giant plant response rating: Postemergence, 125 g ai/ha, 0 to 100 scale (0 no effect, 100 complete control)
Summary of the method: as §1

[11] = tested on: galium (catchweed bedstraw, Galium aparine); assay: Test A postemergence, visual plant response rating; conditions: for Galium plant response rating (0 to 100 scale): 500 g ai/ha, postemergence, 0 is no effect, 100 is complete control; for Galium plant response rating: Postemergence, 125 g ai/ha, 0 to 100 scale (0 no effect, 100 complete control)
Summary of the method: as §1

kochia (Kochia scoparia) [12] = assay: Test A postemergence, visual plant response rating; conditions: for Kochia plant response rating (0 to 100 scale): 500 g ai/ha, postemergence, 0 is no effect, 100 is complete control; for Kochia plant response rating: Postemergence, 125 g ai/ha, 0 to 100 scale (0 no effect, 100 complete control)
Summary of the method: as §1

[13] = tested on: pigweed (Amaranthus retroflexus); assay: Test A postemergence, visual plant response rating; conditions: for Pigweed plant response rating (0 to 100 scale): 500 g ai/ha, postemergence, 0 is no effect, 100 is complete control; for Pigweed plant response rating: Postemergence, 125 g ai/ha, 0 to 100 scale (0 no effect, 100 complete control)
Summary of the method: as §1

[14] = tested on: ragweed (common ragweed, Ambrosia elatior); assay: Test A postemergence, visual plant response rating; conditions: for Ragweed plant response rating (0 to 100 scale): 500 g ai/ha, postemergence, 0 is no effect, 100 is complete control; for Ragweed plant response rating: Postemergence, 125 g ai/ha, 0 to 100 scale (0 no effect, 100 complete control)
Summary of the method: as §1

[15] = tested on: wheat (Triticum aestivum); assay: Test A postemergence, visual plant response rating; conditions: for Wheat plant response rating (0 to 100 scale): 500 g ai/ha, postemergence, 0 is no effect, 100 is complete control; for Wheat plant response rating: Postemergence, 125 g ai/ha, 0 to 100 scale (0 no effect, 100 complete control)
Summary of the method: as §1

[16] = tested on: barnyardgrass (Echinochloa crus-galli); assay: Test B flooded paddy test, visual plant response rating; conditions: 250 g ai/ha, Flood, applied to paddy water, 2-leaf stage, evaluated after 13 to 15 days
Summary of the method: (§2)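 Test pots are flooded 3 cm above the soil at treatment, and the test substance is introduced into this standing water. After keeping the flood level and growing plants, treated at the 2-leaf stage, for 13 to 15 days under glass, injury is assessed visually versus controls.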

[17] = tested on: ducksalad (Heteranhera limosa); assay: as above; conditions: 250 g ai/ha, Flood, applied to paddy water, 2-leaf stage, evaluated after 13 to 15 days
Summary of the method: as §2

rice (Oryza sativa) = assay: as above; conditions: 250 g ai/ha, Flood, applied to paddy water, 2-leaf stage, evaluated after 13 to 15 days
Summary of the method: as §2

[18] = tested on: sedge, umbrella (small-flower umbrella sedge, Cyperus difformis); assay: as above; conditions: 250 g ai/ha, Flood, applied to paddy water, 2-leaf stage, evaluated after 13 to 15 days
Summary of the method: as §2

Structure (SMILES) | Ryegrass, Italian plant response rating [1] | Ryegrass, Italian plant response rating (0 to 100 scale) [1] | Barnyardgrass plant response rating [2] | Barnyardgrass plant response rating (0 to 100 scale) [2] | Foxtail, Giant plant response rating [3] | Foxtail, Giant plant response rating (0 to 100 scale) [3] | Kochia plant response rating (kochia (Kochia scoparia) [4]) | Kochia plant response rating (0 to 100 scale) (kochia (Kochia scoparia) [4]) | Pigweed plant response rating [5] | Pigweed plant response rating (0 to 100 scale) [5] | Ragweed plant response rating (0 to 100 scale) [6] | Ryegrass, Italian plant response rating (0 to 100 scale) [7] | Ryegrass, Italian plant response rating [7] | Barnyardgrass plant response rating (0 to 100 scale) [8] | Barnyardgrass plant response rating [8] | Blackgrass plant response rating (0 to 100 scale) [9] | Blackgrass plant response rating [9] | Corn plant response rating (0 to 100 scale) (corn (Zea mays)) | Corn plant response rating (corn (Zea mays)) | Foxtail, Giant plant response rating (0 to 100 scale) [10] | other results
CON=C(c1sccc1C)c1c(O)c(C)nn(C)c1=O [Compound 134] | 10 | 30 | 0 | 10 | 0 | 10 | 10 | 50 | 20 | 60 | 70 | 80 | 20 | 20 | 10 | 10 | 0 | 0 | 0 | 20 | Foxtail, Giant plant response rating [10]: 10; Galium plant response rating (0 to 100 scale) [11]: 60; Galium plant response rating [11]: 60; Kochia plant response rating (0 to 100 scale) (kochia (Kochia scoparia) [12]): 70; Kochia plant response rating (kochia (Kochia scoparia) [12]): 20; Pigweed plant response rating (0 to 100 scale) [13]: 80; Pigweed plant response rating [13]: 40; Ragweed plant response rating (0 to 100 scale) [14]: 70; Ragweed plant response rating [14]: 60; Wheat plant response rating (0 to 100 scale) [15]: 0; Wheat plant response rating [15]: 0; Plant response rating, Barnyardgrass (0 to 100 scale, 0 is no effect, 100 is complete control) [16]: 0; Plant response rating, Ducksalad (0 to 100 scale, 0 is no effect, 100 is complete control) [17]: 0; Plant response rating, Rice (0 to 100 scale, 0 is no effect, 100 is complete control) (rice (Oryza sativa)): 0; Plant response rating, Sedge, Umbrella (0 to 100 scale, 0 is no effect, 100 is complete control) [18]: 0
CO/N=C(\c1cscc1C)c1c(O)c(C)nn(C)c1=O [Compound 52] | 0 | 40 | 0 | 10 | 0 | 10 | 0 | 20 | 60 | 80 | 30 | 80 | 10 | 30 | 10 | 30 | 0 | 0 | 0 | 20 | Ragweed plant response rating ([6]; 125 g ai/ha, preemergence, 0 to 100 scale, 0 no effect, 100 complete control): 0; Foxtail, Giant plant response rating [10]: 10; Galium plant response rating (0 to 100 scale) [11]: 80; Galium plant response rating [11]: 70; Kochia plant response rating (0 to 100 scale) (kochia (Kochia scoparia) [12]): 60; Kochia plant response rating (kochia (Kochia scoparia) [12]): 20; Pigweed plant response rating (0 to 100 scale) [13]: 90; Pigweed plant response rating [13]: 70; Ragweed plant response rating (0 to 100 scale) [14]: 90; Ragweed plant response rating [14]: 60; Wheat plant response rating (0 to 100 scale) [15]: 0; Wheat plant response rating [15]: 0; Plant response rating, Barnyardgrass (0 to 100 scale, 0 is no effect, 100 is complete control) [16]: 0; Plant response rating, Ducksalad (0 to 100 scale, 0 is no effect, 100 is complete control) [17]: 0; Plant response rating, Rice (0 to 100 scale, 0 is no effect, 100 is complete control) (rice (Oryza sativa)): 0; Plant response rating, Sedge, Umbrella (0 to 100 scale, 0 is no effect, 100 is complete control) [18]: 0
